Experimental data taken from patent publication US20240336923A1, “DNAZYMES TARGETING CELL WALL SYNTHESIS ENZYMES AND USES THEREOF” (priority 2021, published 2024).
{CholTEG} = cholesterol-triethylene glycol

Experiments:
Type in all cases: cell-based
[1] = system: Pseudomonas aeruginosa (MDR-PA, ATCC® BAA-3105™) biofilm; experiment: Biofilm formation assays (crystal violet and CFU); conditions: TSB, 96 wells, DNAzyme 2.5 μM, 16 hours; for biofilm formation (crystal violet): FIG. 4A; for viable cells within the biofilm (CFU): FIG. 4B
Experimental: FIGS. 4A-B are graphs showing reduction in bacterial density (FIG. 4A) or colony-forming units (FIG. 4B) (vertical axis) in biofilms grown either with or without the indicated DNAzymes (2.5 μM) in 96 wells with tryptic soy broth (TSB) for 16 hours, after which non-adhered cells were removed, and biofilms were washed and stained with 0.1% crystal violet (FIG. 4A) or replating (FIG. 4B). Average and standard mean are depicted by horizontal bars and brackets. Scr is a control scramble DNAzyme (Scr nucleotide sequence is 5′-[…]/3CholTEG/; SEQ ID NO: 44). NT is No Treatment.
Biofilm assays. Bacterial strains were streaked from frozen LB+glycerol stocks onto LB agar plates and incubated for 24 h at 37° C. Single colonies were grown overnight at 37° C. in 3 ml of LB. Cultures were diluted 1:100 in TSB in a 96-well plate, and DNAzymes were added to a final concentration of 2.5 μM. Cultures were incubated at 37° C. without shaking for 16 hours. Non-adherent cells were removed, and biofilms were washed with PBS and either stained with crystal violet (0.1%), or biofilm cells were extracted using mild sonication (2-4 pulses of 5 seconds, amplitude 30%) for CFU determination. CFU was measured using serial dilutions of the bacterial suspensions and spots were plated on LB plates. CFU was determined as above.
To measure the ability of DNAzymes that target a transcript encoding a cell wall biosynthesis enzyme, to affect biofilm formation, bacteria were grown in TSB on plates, under conditions that favor biofilm formation. Representative DNAzymes tested included murG-162, murG-207, and murG-366.

[2] = system: Pseudomonas aeruginosa (MDR-PA, ATCC® BAA-3105™) biofilm; experiment: Scanning electron microscopy of biofilms grown with DNAzymes; conditions: stainless steel mesh, TSB, DNAzyme 1.25 μM twice, 48 hours; FIG. 5C
Experimental: FIGS. 5A-5C: Biofilm macrostructure and morphology of single bacterial cells are affected by DNAzymes targeting murG. Biofilms were grown on top of dense stainless steel mesh in TSB in 12 well plates with or without indicated DNAzymes (1.25 μM). 24 hours afterwards, an additional dose of DNAzymes was added to treated samples. Following 48 hours of overall inoculation, biofilms were fixated and dehydrated. The mesh with associated biofilms was imaged with scanning electron microscopy (SEM). The results are of a representative field of 3 independent repeats. (FIG. 5A). NT, scr, and murG162 as above) (FIG. 5B) Enlargements of representative zones, enabling detection of single-cell morphologies. (FIG. 5C) Overall measurements of the maximal thickness of dehydrated biofilms. (NT, scr, and murG162 as above)
To determine the effects of the representative DNAzymes on macro- and microstructure of treated biofilms, 3D structures of treated and untreated biofilms were examined using scanning electron microscopy (SEM).
To study the effects of DNAzyme treatment on biofilm structure, 3D topographies of the biofilms were generated to compare multiple areas of the biofilm. The biofilms were dehydrated, resulting in a uniform loss of volume percentage.

[3] = system: Pseudomonas aeruginosa strain ATCC® BAA-3105™; experiment: Intracellular DNAzyme quantification in bacteria grown in media (qPCR / flow cytometry); conditions: LB + 32 μg/ml meropenem, 1.25 μM DNAzyme, 4 hours
Experimental: FIGS. 2A-2D. Uptake of fluorescent DNAzyme in media mimicking in vivo conditions, in the presence of subtoxic concentrations of meropenem as judged by flow cytometry. […] FIG. 2B is a graph showing the copy number of fluorescent murG-207 DNAzymes (Dz) per bacterium, as measured by flow cytometry. FIG. 2C is a graph showing uptake of fluorescent murG-207 DNAzyme in bacterial cells in a biofilm. Bacteria were grown under conditions favoring biofilm formation in TSB for 24 hours. Biofilm cells were separated from non-adhered cells, incubated with fluorescent murG-207 DNAzyme for 2 hours, and analyzed by flow cytometry. FIG. 2D is a graph showing uptake of DNAzymes in bacterial colonizing lung tissue samples (mouse lungs from naïve healthy mice). MDR-PA were grown with lung samples in DMEM with meropenem for 24 hours. […] In the histograms shown in FIGS. 2A, 2C, and 2D, arrows indicate which lines represent the basal fluorescence levels of the bacteria, and fluorescence of murG-207 DNAzyme with 3′cholesterol-TEG modification.
Flow cytometry. […] Data was analyzed using Kaluza Analysis 2.1 software using a C6 import module.
Intracellular DNAzyme quantification from bacterial cells. […] For intracellular extraction of the DNAzymes, cells were incubated for 10 minutes at 95° C., and supernatants were collected for quantification of intracellular DNAzymes. […]

[4] = system: Pseudomonas aeruginosa (MDR-PA, ATCC® BAA-3105™) pre-established biofilm; experiment: DNAzyme treatment of pre-established biofilms without or with meropenem (CFU, SEM); conditions: DNAzyme 2.5 μM, 8 hours; for effect on meropenem activity against pre-established biofilms: PBS + 10 μM meropenem, FIG. 6B; for reduction of biofilm biomasses: mature 24 h biofilms, without or with meropenem, FIGS. 6A-6B
Experimental: FIGS. 6A-6C: DNAzymes can reduce viability and increase antibiotic sensitivity of cells from pre-established biofilms. Biofilms were grown in TSB in 12 well plates. 24 hours later, the medium was replaced with PBS (FIG. 6A) or with PBS+10 μM meropenem (FIG. 6B) in the presence or absence of the indicated DNAzymes, murG-162 or SCR (scramble control), […]. Following 8 hours, the adherent remaining cells were extracted, and the number of CFU was determined. (FIG. 6C) Biofilms were grown as described for FIG. 6B. The mesh with associated biofilms was imaged with SEM.
The effect of DNAzymes targeting murG on pre-established biofilms was studied by comparing the application of PBS, scrambled DNAzyme control (SCR), or indicated DNAzymes (162-murG, 207-murG, and 366-murG) on mature biofilms without or with the beta-lactam meropenem (FIGS. 6A-6B, respectively).
These findings were confirmed by SEM. Biofilms treated with sub-lethal concentrations of meropenem with control SCR DNAzyme were […] and had more texture. […] FIG. 6C presents an example of these findings, wherein SCR DNAzyme treated samples were compared to biofilms treated with murG162+meropenem.

Row | Substance | biofilm formation (crystal violet) [1] | viable cells within the biofilm (CFU) [1] | occurrence of areas thicker than 10 μm in dehydrated biofilms [2] | average copy number of DNAzymes per cell [3] | effect on meropenem activity against pre-established biofilms [4] | reduction of biofilm biomasses [4] [log]
1 | 5′-ACCACAATACCGAGATCGGTCGTGTCGGCATGA/3CholTEG/ (DNA, 3' {CholTEG}, backbone and methylation of C not given here) [Scr, control scramble DNAzyme, reference compound] | did not show inhibition of biofilm formation | did not show inhibition of biofilm formation or a reduction of viable cells | composed of areas thicker than 10 μm, areas of about 10 μm, and significantly thinner areas |  |  | 
2 | 5′-CTTGACCAG ggctagctacaacga GACTTCAGG-Chol-TEG-3′ (DNA CTTGACCAGGGCTAGCTACAACGAGACTTCAGG; DNA, 3' {CholTEG}, backbone and methylation of C not given here) [murG-207, 10-23 DNAzyme targeting murG RNA transcript, cleavage site nt 207, 3′ cholesterol-TEG] | biofilm inhibition | significant reduction of viable cells |  | over 10,000 DNAzymes per cell | potentiated the effect of meropenem | ~1
3 | 5′-GATCAGGTG ggctagctacaacga AACGGCAGG-Chol-TEG-3′ (DNA GATCAGGTGGGCTAGCTACAACGAAACGGCAGG; DNA, 3' {CholTEG}, backbone and methylation of C not given here) [murG-162] | biofilm inhibition | significant reduction of viable cells | significantly reduced |  | potentiated the effect of meropenem | ~1
4 | 5′-GGCGTTCTG ggctagctacaacga TCGTGGATC-Chol-TEG-3′ (DNA GGCGTTCTGGGCTAGCTACAACGATCGTGGATC; DNA, 3' {CholTEG}, backbone and methylation of C not given here) [murG-366, 10-23 DNAzyme targeting murG RNA transcript, cleavage site nt 366, 3′ cholesterol-TEG] | biofilm inhibition | significant reduction of viable cells |  |  | potentiated the effect of meropenem | ~1
